Test results as given in patent US9981940B2, “Aryl sulfide derivatives and aryl sulfoxide derivatives as acaricides and insecticides” (BAYER CROPSCIENCE AKTIENGESELLSCHAFT, priority 2013, dated 2018).

Assays:
Boophilus microplus = Boophilus microplus injection test (BOOPMI Inj); assay type: in vivo; conditions: application rate of 20 μg/animal, assessed after 7 days by laying of fertile eggs
Outline: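 Engorged adult female ticks (5 per test) injected in the abdomen with 1 μl of compound solution in DMSO, then held in a climate-controlled room. Efficacy scored after 7 days from fertile egg laying, with 100% meaning no fertile eggs and 0% all eggs fertile.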

Myzus persicae = Myzus persicae spray test (MYZUPE); assay type: in vivo; conditions: after 6 days
Description: Myzus persicae—Spray Test (MYZUPE)
• Solvent: 78 parts by weight of acetone • 1.5 parts by weight of dimethylformamide • Emulsifier: 0.5 part by weight of alkylaryl polyglycol ether
To produce an appropriate active ingredient formulation, 1 part by weight of active ingredient is mixed with the specified amounts of solvent and emulsifier, and the concentrate is diluted to the desired concentration with emulsifier-containing water.
Discs of Chinese cabbage leaves (Brassica pekinensis) infested by all stages of the green peach aphid (Myzus persicae) are sprayed with an active ingredient formulation of the desired concentration.
After 6 days, the activity in % is determined 100% means that all the aphids have been killed; 0% means that none of the aphids have been killed.

Phaedon cochleariae = Phaedon cochleariae spray test (PHAECO); assay type: in vivo; conditions: application rate of 500 g/ha, after 7 days
Outline: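 Chinese cabbage (Brassica pekinensis) leaf discs sprayed with acetone/DMF/emulsifier formulation diluted in emulsifier-containing water, dried, then populated with mustard beetle larvae. Efficacy scored after 7 days as % larvae killed (100% = all killed, 0% = none).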

Spodoptera frugiperda = Spodoptera frugiperda spray test (SPODFR); assay type: in vivo; conditions: application rate of 500 g/ha; after 7 days
Description: Spodoptera frugiperda—Spray Test (SPODFR)
• Solvent: 78.0 parts by weight of acetone • 1.5 parts by weight of dimethylformamide • Emulsifier: alkylaryl polyglycol ether
To produce an appropriate active ingredient formulation, 1 part by weight of active ingredient is dissolved using the specified parts by weight of solvent and made up with water containing an emulsifier concentration of 1000 ppm until the desired concentration is attained. To produce further test concentrations, the preparation is diluted with emulsifier-containing water.
Leaf discs of maize (Zea mays) are sprayed with an active ingredient formulation of the desired concentration and, after drying, populated with caterpillars of the armyworm (Spodoptera frugiperda).
After 7 days, the activity in % is determined 100% means that all caterpillars have been killed; 0% means that none of the caterpillars have been killed.

Tetranychus urticae = Tetranychus urticae spray test, OP-resistant (TETRUR); assay type: in vivo; conditions: application rate of 500 g/ha, after 6 days; for pest or weed control at 500 g/ha: Tetranychus urticae, 144 h, read-out: efficacy
Outline: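 Bean leaf discs infested with all stages of an OP-resistant Tetranychus urticae strain sprayed with compound in acetone/DMF with alkylaryl polyglycol ether emulsifier, diluted in water. Efficacy in % scored after 6 days; 100% means all mites killed.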

[1] = log P by HPLC (OECD Guideline 117), method [a] acidic range; assay type: physicochemical; conditions: for chromatographic logP: reversed-phase C18 HPLC column, acidic range
Description: (§1) The log P values were determined analogously to OECD Guideline 117 (EC Directive 92/69/EEC) by HPLC (high-performance liquid chromatography) using reversed-phase columns (C 18), by the following methods:
[a] The LC-MS determination in the acidic range is effected at pH 2.7 with 0.1% aqueous formic acid and acetonitrile (contains 0.1% formic acid) as eluents; linear gradient from 10% acetonitrile to 95% acetonitrile.

[2] = log P by HPLC (OECD Guideline 117), method [b] neutral range; assay type: physicochemical; conditions: HPLC; for chromatographic logP: reversed-phase C18 HPLC column, neutral range, pH 7.8
Description: as §1
[b] The LC-MS determination in the neutral range is effected at pH 7.8 with 0.001 molar aqueous ammonium hydrogencarbonate solution and acetonitrile as eluents; linear gradient from 10% acetonitrile to 95% acetonitrile.

Lucilia cuprina = Lucilia cuprina test (LUCICU); assay type: in vivo; conditions: application rate of 100 ppm; L1 larvae; after 2 days
Description: Lucilia cuprina Test (LUCICU)
• Solvent: dimethyl sulphoxide
To prepare an appropriate active ingredient formulation, 10 mg of active ingredient are mixed with 0.5 ml of dimethyl sulphoxide, and the concentrate is diluted with water to the desired concentration.
About 20 L1 larvae of the Australian sheep blowfly (Lucilia cuprina) are transferred into a test vessel containing minced horsemeat and the active ingredient preparation of the desired concentration.
After 2 days, the kill in % is determined 100% means that all the larvae have been killed; 0% means that none of the larvae have been killed.

Meloidogyne incognita = Meloidogyne incognita test (MELGIN); assay type: in vivo; conditions: application rate of 20 ppm; after 14 days, by formation of galls
Description: Meloidogyne Incognita Test (MELGIN)
• Solvent: 125.0 parts by weight of acetone
To produce an appropriate active ingredient formulation, 1 part by weight of active ingredient is mixed with the specified amounts of solvent and the concentrate is diluted to the desired concentration with water.
Vessels are filled with sand, active ingredient solution, an egg/larvae suspension of the southern root-knot nematode (Meloidogyne incognita) and lettuce seeds. The lettuce seeds germinate and the plants develop. The galls develop on the roots
After 14 days, the nematicidal efficacy in % is determined by the formation of galls. 100% means that no galls have been found; 0% means that the number of galls on the treated plants corresponds to the untreated control.

[3] = pH 2.7, HPLC method [a], read-out: logP[a]
[4] = pH 2.7, HPLC, pH 2.7, read-out: log P[a]

Structure (SMILES)	efficacy (Boophilus microplus)	efficacy (Myzus persicae; application rate of 100 g/ha)	efficacy (Phaedon cochleariae)	efficacy (Spodoptera frugiperda)	efficacy (Tetranychus urticae)	logP[a] ([1]; HPLC, method [a] acidic range)	logP[b] ([2]; method [b] neutral range)	efficacy (Myzus persicae; application rate of 500 g/ha)	pest or weed control at 500 g/ha (Phaedon cochleariae; Phaedon cochleariae, 168 h, read-out: efficacy)	pest or weed control at 500 g/ha (Tetranychus urticae)	chromatographic logP [1, 3]	chromatographic logP [1, 4]	chromatographic logP [2]	efficacy (kill) (Lucilia cuprina)	nematicidal efficacy (Meloidogyne incognita)
CCCn1c(OC)nn(-c2cc([S+]([O-])CC(F)(F)F)c(C)cc2F)c1=O (centres unmarked) [Example 411]	100%	90%	100%	100%	100%	2.44	2.41								
COC1=CC(=O)N(c2cc([S+]([O-])CC(F)(F)F)c(C)cc2F)C1 (centres unmarked) [Example 311, 1-{2-Fluoro-4-methyl-5-[(2,2,2-trifluoroethyl)sulphinyl]phenyl}-4-methoxy-1,5-dihydro-2H-pyrrol-2-one]	100%							90%	100%	100%	1.83	1.83	1.84		
Cc1cc(F)c(-n2ncn(C(C)C)c2=O)cc1SCC(F)(F)F [Example 4, 2-{2-Fluoro-4-methyl-5-[(2,2,2-trifluoroethyl)sulphanyl]phenyl}-4-isopropyl-2,4-dihydro-3H-1,2,4-triazol-3-one]										90%	2.82	2.82	2.97	80%	90%
